Test results taken from the NIST ThermoML archive (doi:10.1016/j.jct.2014.07.023).

Assay: molar heat capacity at constant pressure; xn = mol fraction of the nth substance listed
Conditions: 100 kPa, Liquid, Small sample (50 mg) DSC

CC(O)CCO (stereo not drawn) [1,3-butanediol] + CO
molar heat capacity at constant pressure [J/K/mol]
Conditions | 293.15 K | 298.15 K | 303.15 K | 308.15 K | 313.15 K | 318.15 K | 323.15 K
x1 = 0.097 | 92.98 | 94.08 | 95.24 | 96.45 | 97.77 | 99.12 | 100.56
x1 = 0.1924 | 105.32 | 106.66 | 108.04 | 109.47 | 110.98 | 112.54 | 114.18
x1 = 0.2893 | 118.06 | 119.57 | 121.13 | 122.79 | 124.45 | 126.21 | 128.02
x1 = 0.3902 | 131.62 | 133.42 | 135.23 | 137.09 | 139 | 140.97 | 142.94
x1 = 0.4943 | 145.68 | 147.68 | 149.69 | 151.69 | 153.82 | 155.95 | 158.19
x1 = 0.6067 | 161 | 163.22 | 165.51 | 167.79 | 170.15 | 172.5 | 174.92
x1 = 0.7843 | 185.37 | 187.93 | 190.57 | 193.28 | 195.92 | 198.72 | 201.51
x1 = 0.9064 | 202.23 | 205.11 | 207.99 | 210.95 | 213.91 | 216.88 | 219.93
x1 = 0.9165 | 203.63 | 206.44 | 209.34 | 212.24 | 215.22 | 218.21 | 221.28
x1 = 0.9242 | 204.61 | 207.52 | 210.44 | 213.44 | 216.44 | 219.44 | 222.53
x1 = 0.9624 | 210.08 | 213.07 | 216.06 | 219.14 | 222.22 | 225.38 | 228.55
x1 = 1 | 215.84 | 218.9 | 222.06 | 225.21 | 228.37 | 231.61 | 234.86

CC(O)C(C)O (stereo not drawn) [2,3-butanediol] + CO
molar heat capacity at constant pressure [J/K/mol]
Conditions | 293.15 K | 298.15 K | 303.15 K | 308.15 K | 313.15 K | 318.15 K | 323.15 K
x1 = 0.0456 | 86.73 | 87.8 | 88.95 | 90.13 | 91.37 | 92.66 | 94.01
x1 = 0.0847 | 92.44 | 93.66 | 94.92 | 96.21 | 97.54 | 98.95 | 100.35
x1 = 0.1972 | 108.82 | 110.3 | 111.78 | 113.35 | 114.96 | 116.61 | 118.31
x1 = 0.2792 | 121.32 | 122.96 | 124.65 | 126.34 | 128.08 | 129.81 | 131.6
x1 = 0.3824 | 136.66 | 138.56 | 140.46 | 142.41 | 144.36 | 146.37 | 148.43
x1 = 0.4673 | 150.38 | 152.39 | 154.41 | 156.48 | 158.55 | 160.68 | 162.81
x1 = 0.5862 | 168.13 | 170.37 | 172.69 | 174.93 | 177.25 | 179.63 | 182.01
x1 = 0.7041 | 186.64 | 189.05 | 191.46 | 193.94 | 196.41 | 198.89 | 201.45
x1 = 0.8169 | 204.52 | 207.14 | 209.84 | 212.55 | 215.17 | 217.87 | 220.58
x1 = 0.8832 | 214.76 | 217.34 | 220.01 | 222.68 | 225.26 | 227.93 | 230.59
x1 = 0.9271 | 221.76 | 224.59 | 227.34 | 230.18 | 233.01 | 235.93 | 238.77
x1 = 0.9501 | 225.38 | 228 | 230.7 | 233.32 | 236.11 | 238.82 | 241.61
x1 = 1 | 233.95 | 236.66 | 239.36 | 242.07 | 244.77 | 247.47 | 250.18

OCCCCO [1,4-butanediol] + CO
molar heat capacity at constant pressure [J/K/mol]
Conditions | 293.15 K | 298.15 K | 303.15 K | 308.15 K | 313.15 K | 318.15 K | 323.15 K
x1 = 0.1009 | 92.1 | 93.2 | 94.34 | 95.55 | 96.84 | 98.2 | 99.61
x1 = 0.1972 | 103.34 | 104.65 | 106 | 107.43 | 108.87 | 110.35 | 111.91
x1 = 0.2955 | 114.99 | 116.42 | 117.94 | 119.47 | 121.14 | 122.81 | 124.59
x1 = 0.4144 | 129.16 | 130.79 | 132.48 | 134.21 | 136.07 | 137.97 | 139.99
x1 = 0.5093 | 140.68 | 142.41 | 144.26 | 146.17 | 148.2 | 150.29 | 152.45
x1 = 0.624 | 154.46 | 156.51 | 158.55 | 160.74 | 162.92 | 165.25 | 167.5
x1 = 0.6996 | 163.59 | 165.7 | 167.88 | 170.13 | 172.46 | 174.93 | 177.4
x1 = 0.8004 | 175.9 | 178.18 | 180.54 | 182.97 | 185.48 | 188.08 | 190.75
x1 = 0.8591 | 183.21 | 185.59 | 188.05 | 190.59 | 193.21 | 195.91 | 198.7
x1 = 0.9043 | 188.15 | 190.69 | 193.23 | 195.85 | 198.55 | 201.34 | 204.22
x1 = 0.9565 | 194.9 | 197.44 | 200.07 | 202.87 | 205.67 | 208.56 | 211.63
x1 = 1 | 201.15 | 203.76 | 206.56 | 209.44 | 212.33 | 215.39 | 218.54

CCC(O)CO (stereo not drawn) [1,2-butanediol] + CO
molar heat capacity at constant pressure [J/K/mol]
Conditions | 293.15 K | 298.15 K | 303.15 K | 308.15 K | 313.15 K | 318.15 K | 323.15 K
x1 = 0.0476 | 87.09 | 88.16 | 89.28 | 90.46 | 91.68 | 92.97 | 94.33
x1 = 0.2098 | 110.52 | 111.89 | 113.35 | 114.81 | 116.36 | 117.95 | 119.55
x1 = 0.2964 | 123.04 | 124.67 | 126.29 | 127.97 | 129.69 | 131.42 | 133.19
x1 = 0.3913 | 137.52 | 139.33 | 141.14 | 143 | 144.86 | 146.72 | 148.64
x1 = 0.4706 | 148.79 | 150.69 | 152.65 | 154.55 | 156.51 | 158.53 | 160.49
x1 = 0.6016 | 168.53 | 170.74 | 172.88 | 175.02 | 177.24 | 179.38 | 181.52
x1 = 0.6991 | 182.48 | 184.81 | 187.13 | 189.46 | 191.71 | 194.03 | 196.36
x1 = 0.8042 | 198.84 | 201.2 | 203.65 | 206.01 | 208.45 | 210.81 | 213.25
x1 = 0.8917 | 211.25 | 213.85 | 216.37 | 218.97 | 221.48 | 224 | 226.43
x1 = 0.9224 | 216.09 | 218.66 | 221.31 | 223.88 | 226.45 | 229.02 | 231.59
x1 = 0.9627 | 222 | 224.64 | 227.27 | 229.91 | 232.46 | 235.01 | 237.65
x1 = 1 | 228.1 | 230.8 | 233.5 | 236.21 | 238.91 | 241.52 | 244.23
